Tests used:
Assay in all cases: relative viability (nuclei count vs DMSO), 5 days (fraction); higher = more cells survive
ABC-1 = test system: ABC-1
Method in brief: (§1)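 Relative viability divides the nuclei count in treated wells by that in vehicle wells. Lung cancer cell lines were seeded in 1536-well plates, dosed by pin tool the next day, and fixed and stained after 5 days in one step with final 0.05% Triton X-100, 1% formaldehyde and 1 ug/ml Hoechst. Dosing was a single drug or a fixed anchor-drug dose plus five library-drug doses (not always all listed) in √10 steps, and values are medians of duplicate plates imaged at 4×.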

CAL-12T = test system: CAL-12T
Method in brief: as §1

COR-L23 = test system: COR-L23
Method in brief: as §1

EMC-BAC-2 = test system: EMC-BAC-2
Method in brief: as §1

HARA = test system: HARA
Method in brief: as §1

HCC-366 = test system: HCC-366
Method in brief: as §1

HOP-62 = test system: HOP-62
Method in brief: as §1

LK-2 = test system: LK-2
Method in brief: as §1

NCI-H1437 = test system: NCI-H1437
Method in brief: as §1

NCI-H1563 = test system: NCI-H1563
Method in brief: as §1

NCI-H1650 = test system: NCI-H1650
Method in brief: as §1

NCI-H1651 = test system: NCI-H1651
Method in brief: as §1

NCI-H1734 = test system: NCI-H1734
Method in brief: as §1

NCI-H1755 = test system: NCI-H1755
Method in brief: as §1

NCI-H2347 = test system: NCI-H2347
Method in brief: as §1

NCI-H3122 = test system: NCI-H3122
Method in brief: as §1

NCI-H596 = test system: NCI-H596
Method in brief: as §1

NCI-H727 = test system: NCI-H727
Method in brief: as §1

PC-3 [JPC-3] = test system: PC-3 [JPC-3]
Method in brief: as §1

RERF-LC-KJ = test system: RERF-LC-KJ
Method in brief: as §1

SK-LU-1 = test system: SK-LU-1
Method in brief: as §1

UMC-11 = test system: UMC-11
Method in brief: as §1

`CCNC(=O)c1noc(-c2cc(C(C)C)c(O)cc2O)c1-c1ccc(CN2CCOCC2)cc1` [Luminespib] + CS(=O)(=O)CCNCc1ccc(-c2ccc3ncnc(Nc4ccc(OCc5cccc(F)c5)c(Cl)c4)c3c2)o1 [Lapatinib] (partner 2 µM) gave a relative viability (ABC-1; first compound 0.002 µM) of 1.33, a relative viability (ABC-1; first compound 0.006325 µM) of 0.964 and a relative viability (ABC-1; first compound 0.02 µM) of 0.945. It also gave a relative viability (ABC-1; first compound 0.06325 µM) of 1.14, a relative viability (ABC-1; first compound 0.2 µM) of 0.517 and a relative viability (CAL-12T; first compound 0.002 µM) of 0.596. The relative viability (CAL-12T; first compound 0.006325 µM) was 0.644, the relative viability (CAL-12T; first compound 0.02 µM) was 0.309 and the relative viability (CAL-12T; first compound 0.06325 µM) was 0.183. The relative viability (CAL-12T; first compound 0.2 µM) was 0.158, the relative viability (COR-L23; first compound 0.002 µM) was 1.22 and the relative viability (COR-L23; first compound 0.006325 µM) was 0.945. For the same compound, the relative viability (COR-L23; first compound 0.02 µM) was 0.924, the relative viability (COR-L23; first compound 0.06325 µM) was 0.0749 and the relative viability (COR-L23; first compound 0.2 µM) was 0.0671. The relative viability (EMC-BAC-2; first compound 0.002 µM) was 0.942, the relative viability (EMC-BAC-2; first compound 0.006325 µM) was 0.84 and the relative viability (EMC-BAC-2; first compound 0.02 µM) was 0.597. The relative viability (EMC-BAC-2; first compound 0.06325 µM) was 0.853, the relative viability (EMC-BAC-2; first compound 0.2 µM) was 0.781 and the relative viability (HARA; first compound 0.002 µM) was 0.704. The relative viability (HARA; first compound 0.006325 µM) was 0.709, the relative viability (HARA; first compound 0.02 µM) was 0.465 and the relative viability (HARA; first compound 0.06325 µM) was 0.335. For the same compound, the relative viability (HARA; first compound 0.2 µM) was 0.259, the relative viability (HCC-366; first compound 0.002 µM) was 1.07 and the relative viability (HCC-366; first compound 0.006325 µM) was 1.05. It also gave a relative viability (HCC-366; first compound 0.02 µM) of 0.13, a relative viability (HCC-366; first compound 0.06325 µM) of 0.0159 and a relative viability (HCC-366; first compound 0.2 µM) of 0.0157. The relative viability (HOP-62; first compound 0.002 µM) was 1.13, the relative viability (HOP-62; first compound 0.006325 µM) was 1.08 and the relative viability (HOP-62; first compound 0.02 µM) was 0.695. It also gave a relative viability (HOP-62; first compound 0.06325 µM) of 0.762, a relative viability (HOP-62; first compound 0.2 µM) of 0.0994 and a relative viability (LK-2; first compound 0.002 µM) of 0.849. For the same compound, the relative viability (LK-2; first compound 0.006325 µM) was 0.941, the relative viability (LK-2; first compound 0.02 µM) was 0.545 and the relative viability (LK-2; first compound 0.06325 µM) was 0.252. It also gave a relative viability (LK-2; first compound 0.2 µM) of 0.204, a relative viability (NCI-H1437; first compound 0.002 µM) of 0.819 and a relative viability (NCI-H1437; first compound 0.006325 µM) of 0.748. It also gave a relative viability (NCI-H1437; first compound 0.02 µM) of 0.703, a relative viability (NCI-H1437; first compound 0.06325 µM) of 0.243 and a relative viability (NCI-H1437; first compound 0.2 µM) of 0.102. For the same compound, the relative viability (NCI-H1563; first compound 0.002 µM) was 0.963, the relative viability (NCI-H1563; first compound 0.006325 µM) was 0.818 and the relative viability (NCI-H1563; first compound 0.02 µM) was 0.616. The relative viability (NCI-H1563; first compound 0.06325 µM) was 0.474, the relative viability (NCI-H1563; first compound 0.2 µM) was 0.528 and the relative viability (NCI-H1650; first compound 0.002 µM) was 0.761. It also gave a relative viability (NCI-H1650; first compound 0.006325 µM) of 0.642, a relative viability (NCI-H1650; first compound 0.02 µM) of 0.177 and a relative viability (NCI-H1650; first compound 0.06325 µM) of 0.145. The relative viability (NCI-H1650; first compound 0.2 µM) was 0.176, the relative viability (NCI-H1651; first compound 0.002 µM) was 0.902 and the relative viability (NCI-H1651; first compound 0.006325 µM) was 0.803. The relative viability (NCI-H1651; first compound 0.02 µM) was 0.561, the relative viability (NCI-H1651; first compound 0.06325 µM) was 0.193 and the relative viability (NCI-H1651; first compound 0.2 µM) was 0.161. The relative viability (NCI-H1734; first compound 0.002 µM) was 1.08, the relative viability (NCI-H1734; first compound 0.006325 µM) was 1 and the relative viability (NCI-H1734; first compound 0.02 µM) was 0.675. It also gave a relative viability (NCI-H1734; first compound 0.06325 µM) of 0.123, a relative viability (NCI-H1734; first compound 0.2 µM) of 0.132 and a relative viability (NCI-H1755; first compound 0.002 µM) of 1.09. The relative viability (NCI-H1755; first compound 0.006325 µM) was 0.97, the relative viability (NCI-H1755; first compound 0.02 µM) was 1.07 and the relative viability (NCI-H1755; first compound 0.06325 µM) was 0.502. It also gave a relative viability (NCI-H1755; first compound 0.2 µM) of 0.176, a relative viability (NCI-H2347; first compound 0.002 µM) of 0.941 and a relative viability (NCI-H2347; first compound 0.02 µM) of 0.876. The relative viability (NCI-H2347; first compound 0.06325 µM) was 0.758, the relative viability (NCI-H2347; first compound 0.2 µM) was 0.88 and the relative viability (NCI-H3122; first compound 0.002 µM) was 1.09. The relative viability (NCI-H3122; first compound 0.006325 µM) was 0.951, the relative viability (NCI-H3122; first compound 0.02 µM) was 1.02 and the relative viability (NCI-H3122; first compound 0.06325 µM) was 0.24. For the same compound, the relative viability (NCI-H3122; first compound 0.2 µM) was 0.168, the relative viability (NCI-H596; first compound 0.002 µM) was 1.18 and the relative viability (NCI-H596; first compound 0.006325 µM) was 0.99. For the same compound, the relative viability (NCI-H596; first compound 0.06325 µM) was 0.933, the relative viability (NCI-H596; first compound 0.2 µM) was 0.969 and the relative viability (NCI-H727; first compound 0.002 µM) was 0.82. It also gave a relative viability (NCI-H727; first compound 0.006325 µM) of 0.768, a relative viability (NCI-H727; first compound 0.02 µM) of 0.435 and a relative viability (NCI-H727; first compound 0.06325 µM) of 0.227. For the same compound, the relative viability (NCI-H727; first compound 0.2 µM) was 0.192, the relative viability (PC-3 [JPC-3]; first compound 0.002 µM) was 0.486 and the relative viability (PC-3 [JPC-3]; first compound 0.006325 µM) was 0.471. For the same compound, the relative viability (PC-3 [JPC-3]; first compound 0.02 µM) was 0.404, the relative viability (PC-3 [JPC-3]; first compound 0.06325 µM) was 0.488 and the relative viability (PC-3 [JPC-3]; first compound 0.2 µM) was 0.338. It also gave a relative viability (RERF-LC-KJ; first compound 0.002 µM) of 0.825, a relative viability (RERF-LC-KJ; first compound 0.006325 µM) of 0.812 and a relative viability (RERF-LC-KJ; first compound 0.02 µM) of 0.621. For the same compound, the relative viability (RERF-LC-KJ; first compound 0.06325 µM) was 0.726, the relative viability (RERF-LC-KJ; first compound 0.2 µM) was 0.294 and the relative viability (SK-LU-1; first compound 0.002 µM) was 0.905. For the same compound, the relative viability (SK-LU-1; first compound 0.006325 µM) was 0.469, the relative viability (SK-LU-1; first compound 0.02 µM) was 0.424 and the relative viability (SK-LU-1; first compound 0.06325 µM) was 0.164. The relative viability (SK-LU-1; first compound 0.2 µM) was 0.133, the relative viability (UMC-11; first compound 0.002 µM) was 0.85 and the relative viability (UMC-11; first compound 0.006325 µM) was 0.834. The relative viability (UMC-11; first compound 0.02 µM) was 0.395, the relative viability (UMC-11; first compound 0.06325 µM) was 0.345 and the relative viability (UMC-11; first compound 0.2 µM) was 0.125.
